Each structure is given as a SMILES string. pEC50: −log10 of the molar value.

From patent publication US10703748B2, “Diazanaphthalen-3-yl carboxamides and preparation and use thereof” (Samumed, LLC, priority 2017, dated 2020) come the findings set out here.

Assay [1] relates to α-smooth muscle actin (aSMA) positive LL29 cells. Description: Inhibition of the fibrotic process: αSMA staining in TGF-β1 treated LL29 fibroblasts from IPF patients. Particulars: Homo sapiens, Fibroblast; for pEC50: 96 h; for inhibition at 10 µM: read-out: percentage in parentheses after EC50 >10.
Another assay concerns IL-6. Description: IL-6 inhibition in LPS-stimulated human peripheral blood mononuclear cells (HTRF). The conditions noted are these: Homo sapiens, PBMC; for pEC50: 22 h; for inhibition at 10 µM: read-out: percentage in parentheses after EC50 >10.
The subject of assay [2] is Wnt-responsive Sp5-Luc reporter in SW480 colon carcinoma cells. Nature of the assay: Screening assay for Wnt activity (Sp5-Luc reporter gene assay). Particulars: Homo sapiens; for pEC50: SW480; for inhibition at 10 µM: SW480, read-out: percent inhibition at 10 μM.
In the next assay the target is GSK3β kinase (Homo sapiens, UniProt P49841). Description: GSK3β kinase activity (Ser/Thr 09 peptide Z-lyte FRET assay). The format is biochemical. Particulars: recombinant kinase, 46 μM ATP, one hour at room temperature; read-out: EC50.
Assay [3] relates to SW480 colon carcinoma cells. Nature of the assay: Cell viability assay (CellTiter-Glo). Particulars: Homo sapiens; for pEC50: SW480, 96 h; for inhibition at 10 µM: SW480, read-out: percent inhibition at 10 μM.
Assay [4] has as its system secreted cytokines TNFα, IL-6 and KC-GRO. Nature of the assay: Secreted cytokines in Lipopolysaccharide-stimulated BV-2 cells (Table 9 does not say which cytokine). Format: cell-based, mouse. The conditions noted are these: Mus musculus, BV-2, 5 h; read-out: EC50.
A further assay has as its target DYRK1A kinase (Homo sapiens, UniProt Q13627). Nature of the assay: DYRK1A kinase activity (Ser/Thr 18 peptide Z-lyte FRET assay).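 Further: kinase activity read as coumarin/fluorescein emission ratio after development step, with unphosphorylated and phosphorylated peptide forms setting 0% and 100% controls, values from dose-response curves.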 Format: biochemical. The conditions noted are these: recombinant DYRK1A, 30 μM ATP, one hour at room temperature.

Chain of GSK3β kinase (P49841 whole entry): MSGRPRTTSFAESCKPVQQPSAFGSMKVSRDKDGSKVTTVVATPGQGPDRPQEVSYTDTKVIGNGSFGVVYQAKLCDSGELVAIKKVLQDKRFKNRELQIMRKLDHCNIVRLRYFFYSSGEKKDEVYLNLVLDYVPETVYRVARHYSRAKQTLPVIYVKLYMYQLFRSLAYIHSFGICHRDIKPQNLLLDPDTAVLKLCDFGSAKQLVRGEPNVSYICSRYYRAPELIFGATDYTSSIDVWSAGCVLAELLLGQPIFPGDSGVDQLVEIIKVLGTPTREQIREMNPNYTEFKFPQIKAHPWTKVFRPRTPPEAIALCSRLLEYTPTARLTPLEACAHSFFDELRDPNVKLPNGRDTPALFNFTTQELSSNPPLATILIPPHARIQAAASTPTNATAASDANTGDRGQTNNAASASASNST

In the case of `Cn1cc(-c2cnc3cnc(NC(=O)c4ccc5ccoc5c4)cc3c2)cn1` [Compound 2929, N-(3-(1-Methyl-1H-pyrazol-4-yl)-1,7-naphthyridin-6-yl)benzofuran-6-carboxamide], the pEC50 in assay [1] is 5.65; with IL-6, less than 5.00; in assay [2] it was 6.08; at GSK3β kinase it was less than 5.00; in assay [3] it was 5.97; in assay [4], 6.63. At DYRK1A kinase, the pEC50 was 7.77. Further, the inhibition at 10 µM in the assay with IL-6 was 4.5%.
As to `Cn1cc(-c2cnc3cnc(NC(=O)C4CCN(Cc5ncco5)CC4)cc3c2)cn1` [Compound 2816, N-(3-(1-Methyl-1H-pyrazol-4-yl)-1,7-naphthyridin-6-yl)-1-(oxazol-2-ylmethyl)piperidine-4-carboxamide], the pEC50 was less than 5.00 in assay [1]; less than 5.00 with IL-6; less than 5.00 in assay [2]; 5.28 at GSK3β kinase; less than 5.00 in assay [3]; 6.35 in assay [4]. The pEC50 on DYRK1A kinase is 7.62. Besides, the inhibition at 10 µM in assay [1] was determined as 27.3%; in the assay with IL-6 it was 2.2%; in assay [2], 15.4%; in assay [3] it was 23.2%.
As for `CN(CC(=O)Nc1cc2cc(-c3cnn(C)c3)cnc2cn1)C1CCC1` [Compound 2776, 2-(Cyclobutyl(methyl)amino)-N-(3-(1-methyl-1H-pyrazol-4-yl)-1,7-naphthyridin-6-yl)acetamide], the pEC50 in assay [1] was less than 5.00; in the assay on IL-6, less than 5.00; in assay [2], 6.08; on GSK3β kinase, less than 5.00; in assay [3] it was less than 5.00; in assay [4], 6.00. In addition, at DYRK1A kinase, the negative logarithm of the EC50 (pEC50) is 7.25. For the same molecule, the figures for the inhibition at 10 µM (in assay [1]; in the assay with IL-6; in assay [3]) were 39%, 10.4% and 8.1%, respectively.
As to `O=C(Nc1cc2nc(-c3cncc(NC4CCNCC4)n3)ccc2cn1)C1CCOCC1` [Compound 877, N-(2-(6-(Piperidin-4-ylamino)pyrazin-2-yl)-1,6-naphthyridin-7-yl)tetrahydro-2H-pyran-4-carboxamide], the negative-log EC50 (pEC50) in assay [1] is less than 5.00; with IL-6, less than 5.00; in assay [2], less than 5.00; on GSK3β kinase it was 5.00; in assay [3], less than 5.00; in assay [4], 5.57. The pEC50 at DYRK1A kinase is 7.80. For the same molecule, the inhibition at 10 µM in assay [1] was 23.6%; in the assay with IL-6, 6.8%; in assay [2], 0%; in assay [3] it was 11.7%.
For the molecule `Cn1cc(-c2cc3cc(NC(=O)c4ccc5nccnc5c4)ncc3cn2)cn1` [Compound 3843, N-(6-(1-Methyl-1H-pyrazol-4-yl)-2,7-naphthyridin-3-yl)quinoxaline-6-carboxamide], the negative-log EC50 (pEC50) in assay [1] was 5.89; with IL-6 it was less than 5.00; in assay [2] it was less than 5.00; at GSK3β kinase, 5.93; in assay [3] it was less than 5.00; in assay [4] it was no more than 5.00. The pEC50 at DYRK1A kinase is 8.22. The inhibition at 10 µM in the assay on IL-6 amounted to 6.8%; in assay [2], 25%; in assay [3], 14%.
For the molecule `Cn1cc(-c2ccc3cnc(NC(=O)c4ccnc(OC5CCNCC5)c4)nc3c2)cn1` [Compound 1060, N-(7-(1-Methyl-1H-pyrazol-4-yl)quinazolin-2-yl)-2-(piperidin-4-yloxy)isonicotinamide], the pEC50 in assay [1] is less than 5.00; in the assay on IL-6 it was less than 5.00; in assay [2], 5.45; at GSK3β kinase, less than 5.00; in assay [3], 5.16; in assay [4] it was 6.55. The pEC50 at DYRK1A kinase is 7.57. Also, the inhibition at 10 µM in assay [1] was determined as 28.6%; in the assay with IL-6 it was 4.9%.
For the molecule `CN1CCCN(c2cc(C(=O)Nc3ncc4ccc(-c5cn(C)nn5)cc4n3)ccn2)CC1` [Compound 1285, 2-(4-Methyl-1,4-diazepan-1-yl)-N-(7-(1-methyl-1H-1,2,3-triazol-4-yl)quinazolin-2-yl)isonicotinamide], the negative logarithm of the EC50 (pEC50) in assay [1] was less than 5.00; in the assay on IL-6, less than 5.00; in assay [2] it was 5.78; at GSK3β kinase, 6.08; in assay [3] it was 5.50; in assay [4] it was 5.17. In addition, the pEC50 at DYRK1A kinase was 7.89. For the same molecule, the inhibition at 10 µM in assay [1] came out at 5.5%; in the assay with IL-6 it was 2.1%.
Take `CN1CCCN(c2cc(C(=O)Nc3cc4nc(-c5cn(C)nn5)ccc4cn3)ccn2)CC1` [Compound 379, 2-(4-Methyl-1,4-diazepan-1-yl)-N-(2-(1-methyl-1H-1,2,3-triazol-4-yl)-1,6-naphthyridin-7-yl)isonicotinamide]: the negative-log EC50 (pEC50) in assay [1] was 5.67; in the assay with IL-6, 5.68; in assay [2], 5.80; on GSK3β kinase, 6.44; in assay [3], 5.87; in assay [4], 6.13. Also, the pEC50 on DYRK1A kinase is 7.96.
Take `CN1CCC(n2cc(C(=O)Nc3cc4cc(-c5cncc6[nH]ccc56)ncc4cn3)cn2)CC1` [Compound 4523, N-(6-(1H-Pyrrolo[2,3-c]pyridin-4-yl)-2,7-naphthyridin-3-yl)-1-(1-methylpiperidin-4-yl)-1H-pyrazole-4-carboxamide]: the pEC50 was 5.62 in assay [1]; 5.49 in the assay on IL-6; 6.14 in assay [2]; less than 5.00 at GSK3β kinase; 6.29 in assay [3]; 5.89 in assay [4]. Besides, the pEC50 at DYRK1A kinase is 8.00.
For `CN1CCN(c2cc(C(=O)Nc3ncc4ccc(-c5cnc(N)s5)cc4n3)ccn2)CC1` [Compound 1589, N-(7-(2-aminothiazol-5-yl)quinazolin-2-yl)-2-(4-methylpiperazin-1-yl)isonicotinamide], the pEC50 in assay [1] is 6.04; in the assay with IL-6 it was 5.54; in assay [2], 6.74; on GSK3β kinase, 5.00; in assay [3], 6.48; in assay [4] it was 6.66. In addition, the pEC50 at DYRK1A kinase is 8.30.
Turning to `CN(C)Cc1ccc(C(=O)Nc2cc3nc(-c4cnn(C)c4)ccc3cn2)cc1` [Compound 170, 4-((Dimethylamino)methyl)-N-(2-(1-methyl-1H-pyrazol-4-yl)-1,6-naphthyridin-7-yl)benzamide], the negative logarithm of the EC50 (pEC50) in assay [1] is 5.89; in the assay on IL-6, 5.09; in assay [2], 6.40; on GSK3β kinase, 5.73; in assay [3] it was 5.47; in assay [4], 7.26. The pEC50 at DYRK1A kinase is 8.22.
For `CN(C)Cc1ccc(C(=O)Nc2ncc3ccc(-c4cnn(C)c4)cc3n2)cc1` [Compound 1077, 4-((Dimethylamino)methyl)-N-(7-(1-methyl-1H-pyrazol-4-yl)quinazolin-2-yl)benzamide], the pEC50 in assay [1] was 5.41; in the assay on IL-6, 5.04; in assay [2] it was 5.96; on GSK3β kinase, 5.38; in assay [3], 5.47; in assay [4] it was 6.69. The pEC50 at DYRK1A kinase is 7.80.
Turning to `C[C@H]1CCCN1CC(=O)Nc1cc2cc(-c3cnn(C)c3)cnc2cn1` [Compound 2767, (S)—N-(3-(1-Methyl-1H-pyrazol-4-yl)-1,7-naphthyridin-6-yl)-2-(2-methylpyrrolidin-1-yl)acetamide], the pEC50 in assay [1] was less than 5.00; in the assay on IL-6, less than 5.00; in assay [2] it was less than 5.00; on GSK3β kinase it was 5.60; in assay [3], less than 5.00; in assay [4], 6.05. Further, the pEC50 at DYRK1A kinase was 7.47. In addition, the inhibition at 10 µM in assay [1] is 13.8%; in the assay with IL-6 it was 0%; in assay [2], 20.7%; in assay [3], 37%.
As for `CN1CCN(Cc2cccc(C(=O)Nc3ncc4ccc(-c5cnn(C)c5)cc4n3)c2)CC1` [Compound 1079, N-(7-(1-Methyl-1H-pyrazol-4-yl)quinazolin-2-yl)-3-((4-methylpiperazin-1-yl)methyl)benzamide], the pEC50 in assay [1] is less than 5.00; in the assay on IL-6, less than 5.00; in assay [2] it was 6.00; at GSK3β kinase, 5.01; in assay [3], 5.47; in assay [4], 5.85. Moreover, the pEC50 on DYRK1A kinase was 7.72. For the same molecule, the inhibition at 10 µM stood at 14.3% in assay [1] and 12.7% in the assay on IL-6.
As to `CN1CCC(Nc2cncc(C(=O)Nc3cc4cc(-c5cnn(C)c5)ncc4cn3)c2)CC1` [Compound 3783, N-(6-(1-Methyl-1H-pyrazol-4-yl)-2,7-naphthyridin-3-yl)-5-((1-methylpiperidin-4-yl)amino)nicotinamide], the pEC50 in assay [1] is 5.68; with IL-6, less than 5.00; in assay [2], 5.97; on GSK3β kinase, 5.63; in assay [3] it was 5.71; in assay [4], 5.28. At DYRK1A kinase, the negative-log EC50 (pEC50) is 8.40. Moreover, the inhibition at 10 µM in the assay on IL-6 turned out to be 1.7%.
